Reference: patent publication US12478628B2, “Germ cell nuclear factor ligands and methods of use thereof” (Saint Louis University, priority 2020, dated 2025)
Where a chain is given by its changes, count along the chain named.

How the values were obtained:
GCNF LBD F361A = target: T1, GCNF LBD F361A (Homo sapiens, UniProt Q15406, F361A); test: DSF of GCNF LBD mutant F361A; assay type: binding; details: 20 μM ligand
T1 construct: Human GCNF (NR6A1) LBD (residues 248-480) and mutants F284A/F361A; hexahistidine tag with 3C protease site; made in house; host or cells: E. coli BL(21) DE3
T1 sequence (Q15406 248-480 F361A): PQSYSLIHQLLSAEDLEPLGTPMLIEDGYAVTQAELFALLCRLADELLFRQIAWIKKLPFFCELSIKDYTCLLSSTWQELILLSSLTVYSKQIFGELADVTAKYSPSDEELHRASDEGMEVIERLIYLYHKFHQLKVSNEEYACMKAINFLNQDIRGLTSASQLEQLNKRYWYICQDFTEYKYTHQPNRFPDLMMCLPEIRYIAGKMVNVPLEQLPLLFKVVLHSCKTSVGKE
Protocol: Protein Expression and Purification. Human GCNF (NR6A1) LBD (residues 248-480) and mutants F284A/F361A, human LRH-1 (NR5A2) LBD (residues 291-541), human RXRα LBD (residues 223-462), human COUP-TF I LBD (residues 184-410) and human SF-1 LBD (residues 219-461) were subcloned in pET45b(+) plasmid (Novagen) were expressed in E. coli BL(21) DE3 cells in terrific broth with 0.1 mg/mL ampicillin as 3C protease-cleavable hexahistidine-tagged fusion proteins. The bacterial culture was grown at 37° C. to an optical density of 0.8 to 1.0 at 600 nm. Protein expression was induced by adding 1 mM IPTG and was allowed to proceed for 14 h at 22° C. […]
DSF Assay. […] A total of 450 compounds (Life Chemicals) previously selected from a nuclear-receptor-biased library targeting REV-ERB were analyzed. Thermal stability was assessed on a Quantstudio 6 instrument (Biosystems) by ramping the temperature from 25° C. to 95° C. at 0.05° C./s and protein melt shifts were subsequently quantified by Boltzmann-derived melting temperature (Tm) using the Protein Thermal Shift (ThermoFisher) software. […]

GCNF LBD Y336F = target: T2, GCNF LBD Y336F (Homo sapiens, UniProt Q15406, Y336F); test: DSF of GCNF LBD mutant Y336F; assay type: binding; details: 5 mM protein with 20 mM ligand as printed
T2 construct: Human GCNF (NR6A1) LBD (residues 248-480); hexahistidine tag with 3C protease site; made in house; host or cells: E. coli BL(21) DE3
T2 sequence (Q15406 248-480 Y336F): T1 sequence (Q15406 248-480 F361A) with Y89F, A114F
Protocol: DSF Assay. GCNF LBD (5 μM) were mixed with 1× Sypro orange (Invitrogen) in DSF buffer (50 mM HEPES, 50 mM KCl, 5 mM TCEP, 0.5 mM EDTA, pH 7.5). […] Ten microliters (10 μL)×5 replicates for each sample were plated on 384-well PCR microplate. No protein control and no ligand references were also run simultaneously in 5 replicates on the same plate. A total of 450 compounds (Life Chemicals) previously selected from a nuclear-receptor-biased library targeting REV-ERB were analyzed. Thermal stability was assessed on a Quantstudio 6 instrument (Biosystems) by ramping the temperature from 25° C. to 95° C. at 0.05° C./s and protein melt shifts were subsequently quantified by Boltzmann-derived melting temperature (Tm) using the Protein Thermal Shift (ThermoFisher) software. Positive hits were identified when a thermal shift (ΔTm) of at least 2° C. was observed.

[1] = test system: i3 neurons differentiated from induced pluripotent stem cells (iPSCs); test: iPSC differentiation to i3 neurons, morphology; assay type: cell-based; parameters: neurite outgrowth: dose or concentration left out as unconfirmed; details: ligand treatment before and during differentiation
Protocol: (§1) iPSC Differentiation to Neurons. For growing neurons from iPSC cells, the method described by Femandopulle were employed (Femandopulle et al., 2018). Briefly, cells were treated with doxycycline to turn on expression of Neurogenin-2 (NGN2), which irreversibly sets these cells on the path of neuronal differentiation. The cells were treated with doxycycline for 3 days (changing media every day), and then re-plate the cells onto new plates coated with PLO. For each time point, 21 samples were prepared (DMSO and ligands 34 and 80 at different concentrations, in triplicate).
(§2) An overview of the experiment timeline is shown as well: • Day 0: Plate iPSC on matrigel-coated 12-well plates • Day 2: Treat cells −/+ ligands in iPSC media • Day 3: Refeed cells induction media +Doxycycline −/+ ligands to start neuronal differentiation (Day 0 of differentiation) • Day 4: Refeed cells induction media +Doxycycline −/+ ligands (Day 1 of differentiation) • Day 5: Refeed cells induction media +Doxycycline −/+ ligands (Day 2 of differentiation) • Day 6: Take pictures; Refeed cells neuronal media −/+ ligands (Day 3 of differentiation) • Day 7: Collect cells for RNA/qPCR (Day 4 of differentiation)

[2] = test system: i3 neurons differentiated from iPSCs; test: qPCR of pluripotency and neuronal markers after iPSC differentiation; assay type: cell-based; details: qPCR upon ligand treatment
Protocol: qPCR using iPSC samples and differentiated neurons samples to make sure the primers worked. These primers include: • Housekeeping genes for normalization: CYCLO, 36B4, GAPDH • Stem cell markers: OCT4, SOX2, NANOG, REX1 • Neuronal markers: MAP2, MAPT, TUBB3, NCAM1
as §1, §2

effect of mutation F361A on ΔTm compared to WT (GCNF LBD F361A) | SMILES | effect of substitution Y336F on ligand binding (DSF) (GCNF LBD Y336F) | area of cell bodies [1] | neurite branching [1] | neurite outgrowth [1] | expression of pluripotency marker Sox2 [2] | expression of neuronal marker MAPT [2]
substantially decreased the ΔTm | Cc1ccc(-n2ncc3c(N4CCOCC4)nc(NCc4ccco4)nc32)cc1 [Ligand 34, N-[(furan-2-yl)methyl]-1-(4-methylphenyl)-4-(morpholin-4-yl)-1H-pyrazolo[3,4-d]pyrimidin-6-amine] | substantially affect the binding | remain unchanged | more extensive branching | significant increase of neurite outgrowth | substantially decreased | –
completely abrogated the interaction | O=C(Cn1cc(S(=O)(=O)c2ccccc2)c2ccccc21)N1CCc2ccccc21 [Ligand 80, 2-[3-(benzenesulfonyl)-1H-indol-1-yl]-1-(2,3-dihydro-1H-indol-1-yl)ethan-1-one] | only F361A significantly affect the binding of 80 | remain unchanged | more extensive branching | significant increase of neurite outgrowth | substantially decreased | substantially increased
